Paper PMC7351026, “Serum Half-Lives for Short- and Long-Chain Perfluoroalkyl Acids after Ceasing Exposure from Drinking Water Contaminated by Firefighting Foam” (Environmental Health Perspectives, 2020)
Values joined by “and” are separate entries in the source; they are usually repeats but may differ in a detail not shown here. Equal entries are not always repeated. Marks after values point to notes of the source that are not given here.

Experiments:
[1] = Individual serum elimination rate and half-life (linear regression per employee); settings: individual estimate;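 as to HL (half-life): half-life in years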
Method: Serum PFAS concentrations were log-transformed. Time was calculated as the elapsed days between supply of clean bottled water and […] blood sampling. We assumed one compartment, first-order elimination kinetics. In this kinetic model, the body is considered as one homogeneous volume in which mixing is instantaneous and from which PFAS could be absorbed, transferred, and eliminated according to the rate of elimination that is proportional to the concentration of PFAS in the body. Two methods were used to estimate serum elimination rate constant (k) and half-life for each PFAS:
Method 2: For estimation of individual k, linear regression was used to derive the slope ( β ) of the logarithm of serum concentrations vs. time for each employee. The negative value of the slope ( −β ) for each individual was equivalent to the individual k, and individual serum elimination half-life was calculated as ln2/k for each PFAS. If β was positive (i.e., PFAS concentrations tended to increase over the five samplings), the half-life was not calculated.

[2] = PFAS levels in serum samples of airport employees (LC/MS/MS)
Source text: All 26 employees at the airport were invited for a blood sampling between 11 and 14 September 2018 (i.e., within 11 to 14 d after the termination of contaminated drinking-water exposure). Information on age, home address, employment history, working tasks, and sick leave and vacation days in August and September were collected by questionnaire. In addition, data on the number of glasses of water consumed per day, local fish consumption, and history of blood donation and medication were collected. For female employees, questions about menstruation, pregnancy, and duration of breast-feeding were asked.
The PFAS analysis in serum from the first sampling was immediately performed and personal results were reported to the employees. […] These 17 employees submitted four rounds of blood and first morning urine samples in parallel, at 1-month intervals. In total, there were five rounds of serum sampling (started from September) and four rounds of urine sampling (from October). For modeling of elimination, all samples were reanalyzed in a single batch. We obtained 83 serum samples with a median count of 5 (range: 4–5) samples per employee, and 59 urine samples with median of 4 (range: 1–4) samples per employee. Only one employee provided a single urine sample. The study was approved by the Regional Ethical Review Board in Lund, Sweden. All employees provided written informed consent.
Venous whole blood samples were obtained and were centrifuged for 10 min at 1,500×g at room temperature to isolate the serum on site. The serum samples were collected in 6-mL BD Vacutainer® Plus plastic serum tubes without gel (BD). Urine samples were collected in 13-mL polypropylene screw cap tubes (Sarstedt). Serum and urine samples were frozen at −20°C after sampling and transported to Lund using cold chain logistics. Serum and urine samples were stored at −80°C and −20°C , respectively, before analysis.
The serum samples, QC samples, and chemical blanks were prepared in 96-well plates with 1.5-mL flat-bottom glass vials (Biotech solutions). Serum samples were thawed for 1–2 h and mixed on a vortex shaker for approximately 10 s two times. Once after all samples were thawed and a second time before pipetting the serum to the plate. Before pipetting, the tip was pre-wetted several times, drawing a volume into the tip and dispensing it back into the tube. Sample preparation procedures for serum samples consisted of 25μL serum mixed with 25μL water, 25μL methanol, 25μL isotopically labeled internal standards in 50% acetonitrile (see Table S1), and 100μL acetonitrile. Thereafter, samples were mixed vigorous by shaking for 30 min and centrifuged at 2,600×g for 10 min at room temperature. The supernatant ( 0.2mL ) was transferred to 96-well plates with 0.5-mL conical glass vials (MicroLiter Analytical Supplies) and again centrifuged at 3,000×g for 10 min before analysis. The QC samples and chemical blanks were prepared following the same procedure as the serum samples. The calibration standards were prepared in FBS the same way as the samples, except for the addition of diluted reference standards of all analyzed compounds in 25μL of the methanol solution.
Aliquots of 4μL of the sample were analyzed using LC/MS/MS. For the analysis, a C18 column ( 4μm , 2.1mm i.d.×50mm , Genesis Lightning) was used prior to the injector to filter the mobile phases. The analytical column was an Aquity BEH ( 1.7μm , 2.1mm i.d.×100mm Waters). The mobile phases (A and B) were A: 5 mM ammonium acetate in water:methanol (50:50); and B: methanol. The mobile phase was kept at 0% B for 2.5 min after injection. A gradient was then applied over 11 min to 90% B, where it was then kept for 1.5 min. The column was then conditioned at 0% B for 2 min.

[3] = 1st sampling (September 2018), count 17
[4] = 2nd sampling (October 2018), count 17
[5] = 3rd sampling (November, 2018), count 17
[6] = 4th sampling (December 2018), count 16
[7] = 5th sampling (January 2019), count 16
[8] = first serum samples, all 26 airport employees
[9] = median of first serum samples, all 26 airport employees

SMILES: O=S(=O)(O)C(F)(F)C(F)(F)C(F)(F)C(F)(F)F [PFBS, perfluorobutane sulfonic acid]
- Elimination rate ([1]; subject 1, 5 samples): 3.2 yearly
- HL (half-life) ([1]; subject 1, 5 samples): 0.2 year
- Elimination rate ([1]; subject 2, 5 samples): 4.0 yearly
- HL (half-life) ([1]; subject 2, 5 samples): 0.2 year
- Elimination rate ([1]; subject 3, 5 samples): 5.1 yearly
- HL (half-life) ([1]; subject 3, 5 samples): 0.1 year
- Elimination rate ([1]; subject 4, 5 samples): 3.1 yearly
- HL (half-life) ([1]; subject 4, 5 samples): 0.2 year
- Elimination rate ([1]; subject 5, 5 samples): 3.0 yearly
- HL (half-life) ([1]; subject 5, 5 samples): 0.2 year
- Elimination rate ([1]; subject 6, 4 samples): 2.9 yearly
- HL (half-life) ([1]; subject 6, 4 samples): 0.2 year
- Elimination rate ([1]; subject 7, 5 samples): 6.2 yearly
- HL (half-life) ([1]; subject 7, 5 samples): 0.1 year
- Elimination rate ([1]; subject 8, 5 samples): 4.4 yearly
- HL (half-life) ([1]; subject 8, 5 samples): 0.2 year
- Elimination rate ([1]; subject 9, 5 samples): 11.7 yearly
- HL (half-life) ([1]; subject 9, 5 samples): 0.1 year
- Elimination rate ([1]; subject 10, 5 samples): 3.8 yearly
- HL (half-life) ([1]; subject 10, 5 samples): 0.2 year
- Elimination rate ([1]; subject 11, 5 samples): 7.1 yearly
- HL (half-life) ([1]; subject 11, 5 samples): 0.1 year
- Elimination rate ([1]; subject 12, 5 samples): 5.4 yearly
- HL (half-life) ([1]; subject 12, 5 samples): 0.1 year
- Elimination rate ([1]; subject 13, 5 samples): 6.2 yearly
- HL (half-life) ([1]; subject 13, 5 samples): 0.1 year
- Elimination rate ([1]; subject 14, 4 samples): 10.7 yearly
- HL (half-life) ([1]; subject 14, 4 samples): 0.1 year
- Elimination rate ([1]; subject 15, 5 samples): 5.7 yearly
- HL (half-life) ([1]; subject 15, 5 samples): 0.1 year
- Elimination rate ([1]; subject 16, 5 samples): 3.6 yearly
- HL (half-life) ([1]; subject 16, 5 samples): 0.2 year
- Elimination rate ([1]; subject 17, 5 samples): 10.4 yearly
- HL (half-life) ([1]; subject 17, 5 samples): 0.1 year
- Serum PFAS level, 25 percentile [2, 3]: 0.32
- Serum PFAS level, 75 percentile [2, 3]: 0.68
- Serum PFAS level, Max [2, 3]: 1.3
- Serum PFAS level, Median [2, 3]: 0.46
- Serum PFAS level, Min [2, 3]: 0.22
- Serum PFAS level, 25 percentile [2, 4]: 0.11
- Serum PFAS level, 75 percentile [2, 4]: 0.31
- Serum PFAS level, Max [2, 4]: 0.70
- Serum PFAS level, Median [2, 4]: 0.17
- Serum PFAS level, Min [2, 4]: < LOD
- Serum PFAS level, 25 percentile [2, 5]: < LOD
- Serum PFAS level, 75 percentile [2, 5]: 0.28
- Serum PFAS level, Max [2, 5]: 0.65
- Serum PFAS level, Median [2, 5]: 0.09
- Serum PFAS level, Min [2, 5]: < LOD
- Serum PFAS level, 25 percentile [2, 6]: < LOD
- Serum PFAS level, 75 percentile [2, 6]: 0.24
- Serum PFAS level, Max [2, 6]: 0.52
- Serum PFAS level, Median [2, 6]: 0.08
- Serum PFAS level, Min [2, 6]: < LOD
- Serum PFAS level, 25 percentile [2, 7]: < LOD
- Serum PFAS level, 75 percentile [2, 7]: 0.11
- Serum PFAS level, Max [2, 7]: 0.30
- Serum PFAS level, Median [2, 7]: 0.06
- Serum PFAS level, Min [2, 7]: < LOD
- Serum level in the first samples, median (range) ([2]; all 26 airport employees): 0.33 ( <LOD –1.3) ng/mL
- PFAS in first serum sample, median (range) ([2]; employees participated in first blood sampling and repeated blood and urine sampling, N=17): 0.46 ng/mL and 0.46 (0.22–1.3) ng/mL
- PFAS in first serum sample, median (range) ([2]; employees participated in first blood sampling only, N=9, 11-14 d after end of exposure): 0.10 ( <LOD –1.0)^d ng/mL
- Initial serum PFAS level, max ([2]; females (N=7)): 1.3 ng/mL
- Initial serum PFAS level, median ([2]; females (N=7)): 0.39 ng/mL
- Initial serum PFAS level, min ([2]; females (N=7)): 0.06 ng/mL
- Relative composition of PFAS in serum, molar concentration basis [2, 8]: 0.4%
- Relative composition of PFAS in serum, weight basis [2, 8]: 0.3%
- Initial serum PFAS level, Max ([2]; males (N=19)): 1.1 ng/mL
- Initial serum PFAS level, Min ([2]; males (N=19)): < LOD
- Initial serum PFAS level, median ([2]; males (N=19)): 0.32 ng/mL
- Serum concentration, molar basis [2, 9]: 0.0011
- Serum concentration, weight basis [2, 9]: 0.33
